From ChEMBL document CHEMBL1201862, “PubChem BioAssay data set” (2004) come the findings set out here.

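1) Cells in 96-well plates. 2) Compound, 48 h, 5 concentrations. 3) Linear interpolation between surrounding doses. 4) Unreached endpoint = highest concentration. GI50: concentration for 50% inhibition of growth.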 The source made the active and inactive calls. No stated cut-off is given here; in the data, active = GI50 up to about 1.1 µM and inactive = higher.

Some test systems named below: CCRF-CEM; DU-145; EKVX; HCT-15; HOP-92; M14; MCF7; MDA-MB-231; MDA-MB-435; OVCAR-4; OVCAR-8; RXF 393; SF-268; SF-295; SK-MEL-28; SN12C; SR; TK-10; UO-31; HCC 2998.
Holding throughout (test): NCI anticancer screen, dose series, 48 h

As for `CC(=O)OCC(C)C1=C(O)C(=O)C2(C)C/C=C(/C)CC/C=C(\C)CCC(O)C(C)CCC12` (stereo unspecified), the GI50 in the test with CCRF-CEM was 21.5 µM (inactive); with DU-145 it was 17.9 µM (inactive); in the test on EKVX, 16.4 µM (inactive); in the test with HCT-15, 17.6 µM; in the test on HOP-92, 18 µM (inactive); with M14, 17.8 µM (inactive). Besides, the GI50 in the test on MCF7 is 24.9 µM (inactive); in the test on MDA-MB-231 it was 16.3 µM (inactive); with MDA-MB-435, 17.5 µM (inactive); in the test with OVCAR-4 it was 17.5 µM (inactive); with OVCAR-8 it was 18.1 µM (inactive); in the test with RXF 393, 12.3 µM (inactive). The GI50 was 18 µM (inactive) in the test with SF-268; 15.6 µM (inactive) in the test with SF-295; 16.7 µM (inactive) in the test on SK-MEL-28; 19 µM (inactive) with SN12C; 7.89 µM (inactive) in the test with SR; 19.6 µM (inactive) in the test on TK-10. Besides, in the test on UO-31, the GI50 is 14.2 µM (inactive).
In the case of `CN(CCNC(=O)c1nn(-c2ccc(Cl)cc2Cl)c2c1Cc1ccccc1-2)CCNC(=O)c1nn(-c2ccc(Cl)cc2Cl)c2c1Cc1ccccc1-2`, the GI50 with CCRF-CEM was 2.27 µM (inactive); in the test on DU-145, 4.69 µM (inactive); in the test on EKVX, 20 µM (inactive); in the test on HCC 2998 it was 1.75 µM (inactive); with HCT-15 it was 2.29 µM; in the test on HOP-92 it was 1.99 µM (inactive). Further, the GI50 in the test with M14 was 1.81 µM (inactive); with MCF7, 2.56 µM (inactive); with MDA-MB-231, 2.66 µM (inactive); in the test with MDA-MB-435 it was 1.51 µM (inactive); in the test on OVCAR-4, 2.1 µM (inactive); with OVCAR-8 it was 2.07 µM (inactive). In addition, the GI50 with RXF 393 was 2.25 µM (inactive); in the test on SF-268, 12.1 µM (inactive); in the test on SF-295, 2.43 µM (inactive); with SK-MEL-28 it was 1.97 µM (inactive); in the test with SN12C it was 3.79 µM (inactive); in the test on TK-10, 6.31 µM (inactive). For the same compound, the GI50 with UO-31 is 2.94 µM (inactive).
Regarding `O=C(NC(=S)Nc1ccc2c(c1)Sc1ccccc1O2)c1ccc([N+](=O)[O-])cc1`, the GI50 in the test with CCRF-CEM is > 100 µM (inactive); in the test with DU-145, > 100 µM (inactive); with EKVX, > 100 µM (inactive); with HCT-15, over 100 µM; in the test with HOP-92, > 100 µM (inactive); with M14 it was > 100 µM (inactive). The GI50 in the test with MCF7, in the test with MDA-MB-231, in the test on MDA-MB-435, in the test with OVCAR-4, in the test on OVCAR-8 and with RXF 393 was > 100 µM (inactive) in each case. Moreover, the GI50 in the test with SF-268, in the test on SF-295, in the test with SK-MEL-28, in the test on SN12C, in the test on SR and with TK-10 was > 100 µM (inactive) in each case. For the same compound, in the test on UO-31, the GI50 is > 100 µM (inactive).
For the compound `CC(C)(C)C1=CC(C)(n2[nH]c(=O)n(-c3ccccc3)c2=O)C=C(C(C)(C)C)C1=O`, the GI50 with DU-145 is > 100 µM (inactive); with HCC 2998 it was > 100 µM (inactive); in the test with HCT-15, over 100 µM; with HOP-92 it was > 100 µM (inactive); in the test on MCF7, > 100 µM (inactive); with MDA-MB-231, > 100 µM (inactive). In addition, the GI50 with MDA-MB-435, with OVCAR-4, in the test on OVCAR-8, with SF-268, with SF-295 and with SK-MEL-28 was > 100 µM (inactive) each time. For the same compound, the GI50 is > 100 µM (inactive) in the test with SN12C, > 100 µM (inactive) in the test on TK-10 and 44.9 µM (inactive) in the test with UO-31.
With `O=C1NC2CCCCC2NC1=C(C(=O)c1ccccc1)C(=O)c1ccccc1` (stereo unspecified), the GI50 with CCRF-CEM is 11 µM (inactive); with DU-145, > 100 µM (inactive); in the test on EKVX, 70.6 µM (inactive); in the test with HCC 2998 it was 70.8 µM (inactive); in the test with HCT-15, 23.3 µM; with M14 it was 66.4 µM (inactive). The GI50 in the test with MCF7 was 16.9 µM (inactive); in the test with MDA-MB-231, 24.3 µM (inactive); in the test with MDA-MB-435, 46.6 µM (inactive); with OVCAR-8 it was 25.5 µM (inactive); with RXF 393 it was > 100 µM (inactive); in the test with SF-268, 69.2 µM (inactive). The GI50 in the test on SF-295 is 40.8 µM (inactive); with SK-MEL-28, 78.2 µM (inactive); with SN12C, 20.7 µM (inactive); in the test on SR, 27.2 µM (inactive); with TK-10 it was 84.1 µM (inactive); in the test with UO-31, 26.9 µM (inactive).
With `Oc1cnnc2nc3ccccc3n12`, the GI50 was > 100 µM (inactive) in the test on CCRF-CEM; > 100 µM (inactive) in the test on DU-145; 34.8 µM (inactive) in the test on EKVX; > 100 µM (inactive) in the test on HCC 2998; over 100 µM with HCT-15; > 100 µM (inactive) in the test with HOP-92. The GI50 in the test with M14, with MCF7, in the test with MDA-MB-231, with MDA-MB-435, with OVCAR-4 and in the test with OVCAR-8 was > 100 µM (inactive) throughout. Also, the GI50 in the test on RXF 393, in the test on SF-268, in the test on SF-295, with SK-MEL-28, with SN12C and with TK-10 was > 100 µM (inactive) throughout. The GI50 with UO-31 was > 100 µM (inactive).
Regarding `CCOC(=O)/C1=C(\C)N(c2ccc(C)cc2)C(=O)c2ccccc2C(=O)c2c(OC(C)=O)ccc(OC(C)=O)c21`, the GI50 in the test with CCRF-CEM was 10.8 µM (inactive); in the test with DU-145, 31.8 µM (inactive); in the test with HCT-15, 16.4 µM; with HOP-92 it was 29.9 µM (inactive); in the test on M14 it was 18.4 µM (inactive); in the test on MCF7, 26.1 µM (inactive). Further, the GI50 in the test with MDA-MB-231 is 12.9 µM (inactive); in the test with MDA-MB-435, 15.3 µM (inactive); with OVCAR-4, 12.8 µM (inactive); in the test on OVCAR-8, 36.8 µM (inactive); in the test on RXF 393, 22.2 µM (inactive); in the test with SF-268, 37.5 µM (inactive). The GI50 with SF-295 is 14.5 µM (inactive); in the test on SK-MEL-28 it was < 0.01 µM (active); in the test with SN12C, 20.4 µM (inactive); in the test on SR it was 15.8 µM (inactive); in the test on TK-10, 19.3 µM (inactive); in the test with UO-31 it was 38.5 µM (inactive).
Consider `O=C1C=C(Cl)C(=O)C(c2ccc(Cl)cc2)=C1`, for which the GI50 in the test on CCRF-CEM was 3.35 µM (inactive); in the test with DU-145, 22 µM (inactive); with EKVX, 14.8 µM (inactive); in the test on HCC 2998 it was 18.1 µM (inactive); with HCT-15 it was 18.8 µM; with HOP-92, 19.3 µM (inactive). The GI50 was 17 µM (inactive) in the test with M14; 16.3 µM (inactive) in the test with MCF7; 17.1 µM (inactive) in the test with MDA-MB-231; 17.9 µM (inactive) in the test with MDA-MB-435; 17.7 µM (inactive) in the test with OVCAR-4; 18.2 µM (inactive) with OVCAR-8. Further, the GI50 in the test with RXF 393 is 18.4 µM (inactive); with SF-268 it was 19.7 µM (inactive); with SF-295, 45.6 µM (inactive); in the test on SK-MEL-28, 20.2 µM (inactive); with SN12C it was 22.7 µM (inactive); with TK-10 it was 21.2 µM (inactive). Also, in the test with UO-31, the GI50 is 14.8 µM (inactive).
In the case of `C=C(CN(C)C)C1(c2ccccc2)CC2(CCCC2)C(=O)O1` (stereo unspecified), the GI50 in the test with CCRF-CEM was 20.6 µM (inactive); with DU-145 it was > 100 µM (inactive); in the test with EKVX, > 100 µM (inactive); in the test on HCC 2998 it was > 100 µM (inactive); in the test with HCT-15, 76.9 µM; in the test on HOP-92 it was 17.9 µM (inactive). Also, the GI50 with M14 was 66.5 µM (inactive); with MCF7, 74.1 µM (inactive); in the test on MDA-MB-231 it was 64.4 µM (inactive); with MDA-MB-435, 56.4 µM (inactive); in the test with OVCAR-4, > 100 µM (inactive); in the test with OVCAR-8, > 100 µM (inactive). For the same compound, the GI50 in the test with RXF 393, in the test with SF-268, with SF-295, in the test on SK-MEL-28, with SN12C and with TK-10 was > 100 µM (inactive) in each case. In addition, the GI50 with UO-31 is 23.9 µM (inactive).
For `CN1CCc2c(sc3ncn(N)c(=N)c23)C1`, the GI50 was 36.1 µM (inactive) in the test on CCRF-CEM; > 100 µM (inactive) in the test on DU-145; > 100 µM (inactive) with EKVX; over 100 µM with HCT-15; > 100 µM (inactive) in the test on HOP-92; > 100 µM (inactive) in the test with M14. The GI50 with MCF7, in the test with MDA-MB-231, in the test with MDA-MB-435, in the test on OVCAR-4, in the test on OVCAR-8 and with RXF 393 was > 100 µM (inactive) each time. Further, the GI50 in the test on SF-268 is > 100 µM (inactive); in the test with SF-295, > 100 µM (inactive); in the test on SK-MEL-28, > 100 µM (inactive); in the test on SN12C, > 100 µM (inactive); in the test on SR it was 63.8 µM (inactive); in the test on TK-10 it was > 100 µM (inactive).
As for `CC(=O)OCc1cc(CCC(=O)NCCNc2c3ccccc3nc3ccccc23)cc(COC(C)=O)c1O[Si](C)(C)C(C)(C)C`, the GI50 in the test with CCRF-CEM was 3.7 µM (inactive); in the test on DU-145, 12.1 µM (inactive); with EKVX, 13.4 µM (inactive); in the test with HCT-15, 14.4 µM; in the test with HOP-92, 4.89 µM (inactive); in the test with M14, 5.26 µM (inactive). Besides, the GI50 in the test on MCF7 was 2.2 µM (inactive); with MDA-MB-231, 3.37 µM (inactive); in the test on MDA-MB-435, 2.97 µM (inactive); in the test on OVCAR-4, 6.19 µM (inactive); in the test with OVCAR-8 it was 13.8 µM (inactive); in the test on RXF 393 it was 3.48 µM (inactive). In addition, the GI50 was 2.67 µM (inactive) in the test on SF-295; 4.73 µM (inactive) in the test with SK-MEL-28; 1.83 µM (inactive) in the test with SN12C; 2.21 µM (inactive) with SR; 7.46 µM (inactive) in the test with TK-10; 12.9 µM (inactive) in the test with UO-31.
